Key:
[1] = system: S. aureus Newman; experiment: fitness (endpoint OD595 vs no drug) (fraction); higher = more growth
In short: (§1)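 In 384-well plates at 37 °C, cultures began at OD595 0.01 in 30 µl, with 55 µl used for S. pneumoniae. OD595 readings every 30 min for 14 h were corrected by the first reading. Fitness divides the stationary-phase transition optical density by the robust mean of no-drug control wells. The result is capped at 1.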

[2] = system: S. pneumoniae D39V; experiment: as above
In short: as §1

[3] = system: B. subtilis 168; experiment: as above
In short: as §1

[4] = system: S. aureus Newman; experiment: Bliss interaction score (quartile over a dose matrix) (fitness difference); higher = more antagonism (negative = synergy)
In short: (§2)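 Each OD595 reading at entry into stationary phase was scaled to the robust mean of the untreated wells on its plate, with a ceiling of 1. These ratios define fitness, and single-drug fitness was inferred from combinations. The Bliss score compares observed fitness with the product-based expectation and is reported as quartiles across all replicate types, technical, biological and donor/recipient.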

[5] = system: S. aureus DSM 20231; experiment: as above
In short: as §2

[6] = system: S. pneumoniae D39V; experiment: as above
In short: as §2

[7] = system: B. subtilis 168; experiment: as above
In short: as §2

[8] = system: S. aureus DSM 20231; experiment: fitness (endpoint OD595 vs no drug) (fraction); higher = more growth
In short: as §1
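Throughout, for Bliss interaction score (quartile over a dose matrix): first quartile when negative (synergy) and third quartile when positive (antagonism).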
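Throughout, for fitness (endpoint OD595 vs no drug): OD595 on entry to stationary phase over no-drug wells; at most 1.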

COc1c(N2C[C@@H]3CCCN[C@@H]3C2)c(F)cc2c(=O)c(C(=O)O)cn(C3CC3)c12 [Moxifloxacin] + CN(C)c1cc(NC(=O)CNC(C)(C)C)c(O)c2c1C[C@H]1C[C@H]3[C@H](N(C)C)C(O)=C(C(N)=O)C(=O)[C@@]3(O)C(O)=C1C2=O [Tigecycline]
fitness
Settings | partner 0.039 µg/mL | partner 0.078 µg/mL | partner 0.156 µg/mL | partner 0.65 µg/mL | partner 1.3 µg/mL | partner 2.6 µg/mL
[1], first compound 0.0075 µg/mL | 0.764 | 0.761 | 0.773 | – | – | –
[1], first compound 0.03 µg/mL | 0.0791 | 0.0794 | 0.113 | – | – | –
[2], first compound 0.0037 µg/mL | – | – | – | 0.945 | 0.955 | 0.852
[2], first compound 0.005 µg/mL | – | – | – | 0.931 | 0.929 | 0.909
[2], first compound 0.0075 µg/mL | – | – | – | 0.937 | 0.94 | 0.905
[2], first compound 0.01 µg/mL | – | – | – | 0.965 | 0.946 | 0.932
[2], first compound 0.015 µg/mL | – | – | – | 0.932 | 0.929 | 0.901
[2], first compound 0.02 µg/mL | – | – | – | 0.835 | 0.94 | 0.971
[3], first compound 0.0312 µg/mL | 0.0412 | 0.0391 | 0.0455 | – | – | –
[3], first compound 0.0625 µg/mL | 0.0348 | 0.0627 | 0.0465 | – | – | –
[3], first compound 0.125 µg/mL | 0.0497 | 0.0447 | 0.0454 | – | – | –
[3], first compound 2 µg/mL | 0.0218 | 0.034 | 0.0374 | – | – | –
[3], first compound 4 µg/mL | 0.0264 | 0.0295 | 0.0361 | – | – | –
[3], first compound 8 µg/mL | 0.008 | 0.0149 | 0.0156 | – | – | –

fitness, [3], one replicate
Settings | first compound 0.0312 µg/mL | first compound 0.0625 µg/mL | first compound 0.125 µg/mL
partner 0.125 µg/mL | 0.402 | 0.0347 | 0.0119
partner 0.25 µg/mL | 0.325 | 0.0048 | 0.0005
partner 0.5 µg/mL | 0.372 | 0.0104 | 0.0203

Settings | Bliss interaction score
[4] | -0.0557
[5] | -0.0652
[6] | 0.0824
[7] | -0.0275

COc1c(N2C[C@@H]3CCCN[C@@H]3C2)c(F)cc2c(=O)c(C(=O)O)cn(C3CC3)c12 [Moxifloxacin] + CN[C@@H]1[C@H](O[C@H]2[C@H](O[C@H]3[C@H](O)[C@@H](O)[C@H](N=C(N)N)[C@@H](O)[C@@H]3N=C(N)N)O[C@@H](C)[C@]2(O)C=O)O[C@@H](CO)[C@H](O)[C@H]1O [Streptomycin]
fitness
Settings | partner 1 µg/mL | partner 2 µg/mL | partner 4 µg/mL | partner 8 µg/mL
[1], first compound 0.0075 µg/mL | 0.834 | 0.733 | – | –
[1], first compound 0.015 µg/mL | – | 0.606 | – | –
[1], first compound 0.03 µg/mL | – | 0.201 | 0.0711 | –
[2], first compound 0.0037 µg/mL | – | – | 0.891 | 0.785
[2], first compound 0.005 µg/mL | – | 0.922 | 0.944 | 0.892
[2], first compound 0.0075 µg/mL | – | – | 0.904 | 0.837
[2], first compound 0.01 µg/mL | – | 0.94 | 0.958 | 0.925
[2], first compound 0.015 µg/mL | – | – | 0.882 | 0.82
[2], first compound 0.02 µg/mL | – | 0.881 | 0.9 | 0.861
[3], first compound 0.0312 µg/mL | – | 0.0439 | 0.0414 | 0.0382
[3], first compound 0.0625 µg/mL | – | 0.0428 | 0.0341 | 0.0226
[3], first compound 0.125 µg/mL | – | 0.041 | 0.0379 | 0.0381
[3], first compound 2 µg/mL | – | 0.0315 | 0.0296 | 0.0146
[3], first compound 4 µg/mL | – | 0.0231 | 0.0178 | 0.0188
[3], first compound 8 µg/mL | – | 0.013 | 0.0133 | 0.0206

fitness, [2], one replicate
Settings | first compound 0.0037 µg/mL | first compound 0.0075 µg/mL | first compound 0.015 µg/mL
partner 2 µg/mL | 0.903 | 0.908 | 0.919
partner 16 µg/mL | 0.699 | 0.743 | 0.685

Settings | Bliss interaction score
[4] | -0.031
[5] | 0.0517
[6] | 0.0604
[7] | 0.0188

CCCCCCCCCC(=O)N[C@H]1[C@H](Oc2c3cc4cc2Oc2ccc(cc2Cl)[C@@H](O[C@@H]2O[C@H](CO)[C@@H](O)[C@H](O)[C@H]2NC(C)=O)[C@@H]2NC(=O)[C@H](NC(=O)[C@@H]4NC(=O)[C@H]4NC(=O)[C@@H](Cc5ccc(c(Cl)c5)O3)NC(=O)[C@H](N)c3ccc(O)c(c3)Oc3cc(O)cc4c3)c3ccc(O)c(c3)-c3c(O[C@H]4O[C@H](CO)[C@@H](O)[C@H](O)[C@@H]4O)cc(O)cc3[C@@H](C(=O)O)NC2=O)O[C@H](CO)[C@@H](O)[C@@H]1O [Teicoplanin] + COc1cc(Cc2cnc(N)nc2N)cc(OC)c1OC [Trimethoprim]
fitness, [8], main component drawn
Settings | partner 0.125 µg/mL | partner 0.25 µg/mL | partner 0.5 µg/mL | partner 1 µg/mL
first compound 0.1562 µg/mL | 0.733 | 0.591 | 0.0778 | 0.0229
first compound 0.3125 µg/mL | 0.798 | 0.61 | 0.0585 | 0.0126
first compound 0.625 µg/mL | 0.708 | – | 0.0794 | 0.0061

main component drawn
Settings | Bliss interaction score
[4] | -0.249
[5] | -0.167
[6] | -0.0668
[7] | -0.0836

COc1cc(Cc2cnc(N)nc2N)cc(OC)c1OC [Trimethoprim] + CN[C@H](CC(C)C)C(=O)N[C@H]1C(=O)N[C@@H](CC(N)=O)C(=O)N[C@H]2C(=O)N[C@H]3C(=O)N[C@H](C(=O)N[C@H](C(=O)O)c4cc(O)cc(O)c4-c4cc3ccc4O)[C@H](O)c3ccc(c(Cl)c3)Oc3cc2cc(c3O[C@@H]2O[C@H](CO)[C@@H](O)[C@H](O)[C@H]2O[C@H]2C[C@](C)(N)[C@H](O)[C@H](C)O2)Oc2ccc(cc2Cl)[C@H]1O [Vancomycin]
[8], first compound 0.125 µg/mL, one replicate
Settings | fitness
partner 0.1875 µg/mL | 0.667
partner 0.375 µg/mL | 0.898
partner 0.75 µg/mL | 0.984

fitness, [8]
Settings | first compound 0.25 µg/mL | first compound 0.5 µg/mL | first compound 1 µg/mL
partner 0.1875 µg/mL | 0.604 | 0.0644 | 0.0331
partner 0.375 µg/mL | 0.613 | – | 0.0412
partner 0.75 µg/mL | 0.62 | – | 0.0581

Settings | Bliss interaction score
[4] | -0.0768
[5] | -0.0623
[6] | 0.119
[7] | 0.0634
